Reference: US10278942B2 (PELOTON THERAPEUTICS, INC., priority 2015, dated 2019)
Where two headings read alike, the source gives them in different places.

Legend:
[1] = target: T1, HIF-2α HIS TAG-PASB Domain (Homo sapiens, UniProt Q99814); test: HIF-2α Scintillation Proximity Assay (SPA); type: binding
T1 construct: 100 nM HIF-2α HIS TAG-PASB Domain
Summary of the method: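 IC50 values rest on percent inhibition, where the sample signal is scaled between high and low controls. Wells contain about 100 μL: compound dispensed as 2 μL of DMSO solution, 88 μL protein-probe mix and 10 μL of beads.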

[2] = tested on: 786-O cells; test: VEGF ELISA Assay; type: cell-based; details: Homo sapiens, 786-0
Description: Each concentration was plated in duplicate. About 20 hours later, medium was removed by suction and each well was supplied with 180 μL of growth medium. About 20 μl freshly-made 10× compound stocks were added to each well. […] The EC50 was calculated by GraphPad Prism using the dose-response-inhibition (four parameter) equation. The cell-seeded plate was then subjected to CellTiter-Glo luminescence cell viability assay (Promega) by adding 50 μL of Celltiter Glo reagent into each well and shaking the plate for 8 minutes at 550 rpm (Thermomixer R, Eppendorf) then the luminescence signal immediately read in a plate reader (3 second delay, 0.5 second/well integration time, Synergy 2 multi Detection Microplate reader).

[3] = tested on: 786-O-Hif-Luc cells; test: Luciferase Assay (HIF responsive elements reporter); details: read-out: Mean Luciferase EC50 (nM), 786-O-Hif-Luc cells
Description: A pool of infected cells were then selected against 2 μg/mL of puromycin (P8833, Sigma) for 10 days followed by limited dilution to select single clones. […] Each concentration was tested in triplicate. After about 24 hours, luciferase activity was determined using ONE-Glo Luciferase Assay Reagent (E6110, Promega) following the manufacturer's recommended procedure. EC50 were calculated using Dotmatics software.

[4] = read-out: Scintillation Proximity Assay IC50

T1 sequence (Q99814 240-350 limits assumed): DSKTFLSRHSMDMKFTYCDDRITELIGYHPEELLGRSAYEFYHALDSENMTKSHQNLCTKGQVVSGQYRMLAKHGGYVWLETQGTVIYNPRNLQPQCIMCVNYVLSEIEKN

IC50 [1, 4] [nM] | EC50 [2] [nM] | EC50 [3] [nM] | IC50 ([1]; Scintillation Proximity Assay IC50 (nM)) [nM] | Structure (SMILES)
< 50 | < 50 | < 50 | – | O=S(=O)(c1ccc(Oc2ccc(F)c(F)c2)c2c1[C@H](O)C(F)(F)C2)C(F)F [Compound 196]
< 50 | 50 to 249 | < 50 | – | CS(=O)(=O)c1ccc(Oc2cc(F)cc(Br)c2)c2c1[C@H](O)C(F)(F)C2 [Compound 304]
– | < 50 | < 50 | < 50 | N#Cc1cc(F)cc(Oc2ccc(S(=O)(=O)C(F)(F)F)c3c2CC(F)(F)[C@H]3O)c1 [Compound 185]
50 to 249 | 50 to 249 | 50 to 249 | – | O=S(=O)(c1ccc(OC2COC2)c2c1[C@H](O)C(F)(F)C2)C(F)(F)F [Compound 784]
< 50 | 50 to 249 | < 50 | – | CCCCOc1ccc(S(=O)(=O)C(F)(F)F)c2c1CC(F)(F)[C@H]2O [Compound 710]
< 50 | 50 to 249 | 50 to 249 | – | N=S1(=O)c2ccc(Oc3cc(F)cc(F)c3)c(C(F)F)c2C(O)C1(F)F (stereo not drawn) [Compound 398]
< 50 | > 1000 | > 1000 | – | N#Cc1c(S(=O)(=O)C(F)(F)F)ccc(Oc2cc(F)cc(Cl)c2)c1Br [Compound 98]
< 50 | < 50 | < 50 | – | O=S(=O)(c1ccc(Oc2cncc(Cl)c2)c2c1[C@H](O)C(F)(F)C2)C(F)(F)F [Compound 186]
< 50 | < 50 | < 50 | – | O=S(=O)(CF)c1ccc(O[C@H]2C[C@H](F)C2)c2c1[C@H](O)C(F)(F)[C@@H]2F [Compound 742]
50 to 249 | 50 to 249 | 50 to 249 | – | O=S1(=O)c2ccc(Oc3cncc(Cl)c3)c(Br)c2[C@@H](O)C1(F)F [Compound 421]
< 50 | < 50 | < 50 | – | CC(C)COc1ccc(S(=O)(=O)C(F)(F)F)c2c1CC(F)(F)[C@H]2O [Compound 709]
< 50 | < 50 | 50 to 249 | – | O=S(=O)(CF)c1ccc(Oc2cc(F)cc(F)c2)c2c1[C@H](O)CC2 [Compound 60]
< 50 | 50 to 249 | 50 to 249 | – | CS(=O)(=O)c1ccc(Oc2cncc(C#N)c2)c2c1[C@H](O)C(F)(F)[C@@H]2F [Compound 342]
< 50 | < 50 | < 50 | – | N#Cc1cc(Oc2ccc(S(=O)(=O)C(F)(F)F)c3c2CC(F)(F)[C@H]3O)ccc1F [Compound 228]
< 50 | < 50 | < 50 | – | O=S(=O)(c1ccc(Oc2cc(F)cc(F)c2)c2c1C(O)C(F)(F)C2)C(F)F (stereo not drawn) [Compound 9]
< 50 | 50 to 249 | 50 to 249 | – | O=S(=O)(c1ccc(Oc2cc(F)c[n+]([O-])c2)c2c1[C@H](O)C(F)(F)C2)C(F)(F)F [Compound 310]
< 50 | 50 to 249 | < 50 | – | CS(=O)(=NC#N)c1ccc(Oc2cc(F)cc(C#N)c2)c2c1[C@H](O)C(F)(F)C2 (single isomer, unassigned) [Compound 240]
